Data from patent US9179694B2, “Method and composition for enhancing milk production and milk component concentrations” (PURINA ANIMAL NUTRITION LLC, priority 2003, dated 2015).

Test: Milk production (as is basis) in sorbitol feeding trials
Format: in vivo, Holstein cows
Conditions: multiparious cows
Description: Each cow of each of the six different trials (Control Trial #1, Control Trial #2, Pre-Partum Trial #1, Pre-Partum Trial #2, Pre/Post Trial #1, and Pre/Post Trial #2) was milked three times daily and the weight of produced milk by each cow was recorded at each milking. The milk from each cow was sampled once per week (⅓ of the sample volume from each of the three milkings occurring on the weekly milk sampling day) and was analyzed for true protein, total fat, lactose, and total solids, as detailed in the property determination and characterization techniques presented above. Additionally, samples of blood were periodically obtained from each cow during the four trials (Control Trial 2, Pre-Partum Trial #2, Pre/Post Trial #1, and Pre/Post Trial #2) encompassed in Example Two and were analyzed for non-esterified fatty acid (NEFA) content as detailed in the property determination and characterization techniques presented above. No NEFA analysis was conducted on the cows employed in Control Trial #1 or Pre-Partum Trial #1 that are the subject of Example One. Example One includes Control Trial #1 and Pre-Partum Trial #1. Both primiparious cows and multiparious cows were included in Control Trial #1 and Pre-Partum Trial #1. Five primiparious cows and fifteen multiparious cows were included in Control Trial #1; likewise, five primiparious cows and fifteen multiparious cows were included in Pre-Partum Trial #1. All cows included in Control Trial #1 and Pre-Partum Trial #1 were Holsteins. Example Two includes Control Trial #2, Pre-Partum Trial #2, Pre/Post Trial #1, and Pre/Post Trial #2. Only multiparious, Holstein cows were included in Control Trial #2, Pre-Partum Trial #1, Pre/Post Trial #1, and Pre/Post Trial #2. Eighteen multiparious cows were included in both Control Trial #2 and Pre-Partum Trial #2, while sixteen multiparious cows were included in Pre/Post Trial #1 and seventeen multiparious cows were included in Pre/Post Trial #2.

Compound: OC[C@@H](O)[C@@H](O)[C@H](O)[C@@H](O)CO [sorbitol]
- Milk Production (As Is Basis) (Pre-Partum Trial #2 (75/0/100 g/day in wk −3..−1/+1..+4/+5..+8), weeks +5 through +8): 115 lbs/day
- Milk Production (As Is Basis) (Pre/Post Trial #1 (150/125/100 g/day in wk −3..−1/+1..+4/+5..+8), week +1): 67.9 lbs/day
- Milk Production (As Is Basis) (Pre/Post Trial #1 (150/125/100 g/day in wk −3..−1/+1..+4/+5..+8), week +1, two-trial comparison with Control Trial #2 (Table 23)): 68.4 lbs/day
- Milk Production (As Is Basis) (Pre/Post Trial #1 (150/125/100 g/day in wk −3..−1/+1..+4/+5..+8), week +2): 93.8 lbs/day
- Milk Production (As Is Basis) (Pre/Post Trial #1 (150/125/100 g/day in wk −3..−1/+1..+4/+5..+8), week +2, two-trial comparison with Control Trial #2 (Table 23)): 93.9 lbs/day
- Milk Production (As Is Basis) (Pre/Post Trial #1 (150/125/100 g/day in wk −3..−1/+1..+4/+5..+8), week +3): 104 lbs/day
- Milk Production (As Is Basis) (Pre/Post Trial #1 (150/125/100 g/day in wk −3..−1/+1..+4/+5..+8), week +3, two-trial comparison with Control Trial #2 (Table 23)): 104 lbs/day
- Milk Production (As Is Basis) (Pre/Post Trial #1 (150/125/100 g/day in wk −3..−1/+1..+4/+5..+8), week +4): 109 lbs/day
- Milk Production (As Is Basis) (Pre/Post Trial #1 (150/125/100 g/day in wk −3..−1/+1..+4/+5..+8), week +4, two-trial comparison with Control Trial #2 (Table 23)): 109 lbs/day
- Milk Production (As Is Basis) (Pre/Post Trial #1 (150/125/100 g/day in wk −3..−1/+1..+4/+5..+8), week +5): 113 lbs/day
- Milk Production (As Is Basis) (Pre/Post Trial #1 (150/125/100 g/day in wk −3..−1/+1..+4/+5..+8), week +5, two-trial comparison with Control Trial #2 (Table 23)): 113 lbs/day
- Milk Production (As Is Basis) (Pre/Post Trial #1 (150/125/100 g/day in wk −3..−1/+1..+4/+5..+8), week +6): 113 lbs/day
- Milk Production (As Is Basis) (Pre/Post Trial #1 (150/125/100 g/day in wk −3..−1/+1..+4/+5..+8), week +6, two-trial comparison with Control Trial #2 (Table 23)): 113 lbs/day
- Milk Production (As Is Basis) (Pre/Post Trial #1 (150/125/100 g/day in wk −3..−1/+1..+4/+5..+8), week +7): 112 lbs/day
- Milk Production (As Is Basis) (Pre/Post Trial #1 (150/125/100 g/day in wk −3..−1/+1..+4/+5..+8), week +7, two-trial comparison with Control Trial #2 (Table 23)): 112 lbs/day
- Milk Production (As Is Basis) (Pre/Post Trial #1 (150/125/100 g/day in wk −3..−1/+1..+4/+5..+8), week +8): 114 lbs/day
- Milk Production (As Is Basis) (Pre/Post Trial #1 (150/125/100 g/day in wk −3..−1/+1..+4/+5..+8), week +8, two-trial comparison with Control Trial #2 (Table 23)): 115 lbs/day
- Milk Production (As Is Basis) (Pre/Post Trial #1 (150/125/100 g/day in wk −3..−1/+1..+4/+5..+8), weeks +1 through +4): 93.6 lbs/day
- Milk Production (As Is Basis) (Pre/Post Trial #1 (150/125/100 g/day in wk −3..−1/+1..+4/+5..+8), weeks +1 through +4, two-trial comparison with Control Trial #2 (Table 23)): 94.1 lbs/day
- Milk Production (As Is Basis) (Pre/Post Trial #1 (150/125/100 g/day in wk −3..−1/+1..+4/+5..+8), weeks +1 through +8): 103 lbs/day
- Milk Production (As Is Basis) (Pre/Post Trial #1 (150/125/100 g/day in wk −3..−1/+1..+4/+5..+8), weeks +1 through +8, two-trial comparison with Control Trial #2 (Table 23)): 104 lbs/day
- Milk Production (As Is Basis) (Pre/Post Trial #1 (150/125/100 g/day in wk −3..−1/+1..+4/+5..+8), weeks +5 through +8): 113 lbs/day
- Milk Production (As Is Basis) (Pre/Post Trial #1 (150/125/100 g/day in wk −3..−1/+1..+4/+5..+8), weeks +5 through +8, two-trial comparison with Control Trial #2 (Table 23)): 113 lbs/day
- Milk Production (As Is Basis) (Pre/Post Trial #2 (75/75/100 g/day in wk −3..−1/+1..+4/+5..+8), week +1): 66.4 lbs/day
- Milk Production (As Is Basis) (Pre/Post Trial #2 (75/75/100 g/day in wk −3..−1/+1..+4/+5..+8), week +2): 92.8 lbs/day
- Milk Production (As Is Basis) (Pre/Post Trial #2 (75/75/100 g/day in wk −3..−1/+1..+4/+5..+8), week +3): 102 lbs/day
- Milk Production (As Is Basis) (Pre/Post Trial #2 (75/75/100 g/day in wk −3..−1/+1..+4/+5..+8), week +4): 108 lbs/day
- Milk Production (As Is Basis) (Pre/Post Trial #2 (75/75/100 g/day in wk −3..−1/+1..+4/+5..+8), week +5): 113 lbs/day
- Milk Production (As Is Basis) (Pre/Post Trial #2 (75/75/100 g/day in wk −3..−1/+1..+4/+5..+8), week +6): 113 lbs/day
- Milk Production (As Is Basis) (Pre/Post Trial #2 (75/75/100 g/day in wk −3..−1/+1..+4/+5..+8), week +7): 110 lbs/day
- Milk Production (As Is Basis) (Pre/Post Trial #2 (75/75/100 g/day in wk −3..−1/+1..+4/+5..+8), week +8): 108 lbs/day
- Milk Production (As Is Basis) (Pre/Post Trial #2 (75/75/100 g/day in wk −3..−1/+1..+4/+5..+8), weeks +1 through +4): 91.7 lbs/day
- Milk Production (As Is Basis) (Pre/Post Trial #2 (75/75/100 g/day in wk −3..−1/+1..+4/+5..+8), weeks +1 through +8): 102 lbs/day
- Milk Production (As Is Basis) (Pre/Post Trial #2 (75/75/100 g/day in wk −3..−1/+1..+4/+5..+8), weeks +5 through +8): 111 lbs/day
